Three compounds from PubChem BioAssay AID624383 (Sanford-Burnham Center for Chemical Genomics, 2012) can be followed below.

Activity calls are given as the source filed them. How the calls were made is not given here.

This assay has as its target Small ubiquitin-related modifier 1 (Homo sapiens) (UniProt P63165). The assay is described as follows: SUMO1 protein-protein binding blockers, potency – biochemical, FRET, dose response (AID 624383). Particulars: SUMO1 protein-protein interaction, in vitro.

Sequence of Small ubiquitin-related modifier 1 (Homo sapiens) (P63165 whole entry, looked up): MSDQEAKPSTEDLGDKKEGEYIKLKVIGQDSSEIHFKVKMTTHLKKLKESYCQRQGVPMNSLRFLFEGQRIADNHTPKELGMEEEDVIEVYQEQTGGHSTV

On to `CCN(CC)P(=O)(NC(=O)C(Cl)(Cl)Cl)N(CC)CC.[Cl-].[Cl-].[Cl-].[Nd+3]`, for which the concentration for half-maximal inhibition (IC50) was 601 nM.
With `C[c-]1[c-](C)[c-](C)[c-](C)[c-]1C.[Fe].c1cc2nccc(N3CCCC3)[c-]2c1` (stereo not drawn), the IC50 entry was “inactive”.
On to `C=Cc1c(C)c2cc3[nH]c(cc4nc(cc5nc(cc1[nH]2)C(C)=C5CCC(=O)O)C(CCC(=O)O)=C4C)c(C)c3C=C`, for which the IC50 was 1810 nM.
